We go through four compounds from US20260060982A1, “USE OF BTK INHIBITOR AND SINGLE-DOSE DRUG” (HUBEI BIO-PHARMACEUTICAL INDUSTRIAL TECHNOLOGICAL INSTITUTE …, priority 2023, published 2026).

Experiment [1] concerns anti-DNP IgE-induced passive cutaneous anaphylaxis in BALB/c mice. In words: Passive cutaneous anaphylaxis (PCA) model in mice induced with anti-DNP IgE. In kind it is in vivo. From the text:
Passive cutaneous anaphylaxis test, also known as PCA reaction, is a local allergic reaction caused by antibodies that bind to the same or different animal tissues. The PCA animal model in the present disclosure was a passive sensitization model in which IgE binds to specific receptors on skin mast cells. When allergens were stimulated, local mast cells released allergic mediators, thereby increasing local vascular permeability. […] The specific steps were as follows:
The PCA model in mice was induced using anti-DNP IgE. Specifically, BALB/c mice were divided into 9 groups, namely, a normal control group (no administration, injection, or feeding of any solvent), a model group (no administration, injection, or feeding of any solvent), a prednisone group (10 mg/kg, administered for 3 consecutive days, QD (once a day), prednisone concentration of 1 mg/mL, and an administration volume of 10 mL/kg), a cetirizine group (20 mg/kg, administered for 3 consecutive days, QD, cetirizine concentration of 2 mg/mL, and an administration volume of 10 mL/kg), a low-dose group and a medium-dose group for the test substance LOU-064 (15 mg/kg and 45 mg/kg, administered for 3 consecutive days, BID (twice a day), LOU-064 concentrations of 1.5 mg/mL and 4.5 mg/mL, and an administration volume of 10 mL/kg), and a low-dose group, a medium-dose group, and a high-dose group for compound (I) (15 mg/kg, 45 mg/kg, and 90 mg/kg, administered for 3 consecutive days, BID, compound (I) concentrations of 1.5 mg/mL, 4.5 mg/mL, and 9 mg/mL, and an administration volume of 10 mL/kg), with 9 mice in each group, administered by gavage for a total of 4 days. On day 3 of the administration, anti-DNP IgE (Sigma-Aldrich) was injected into the left ears of 8 groups of mice (no normal control group), and the same volume of PBS was injected into the right ears of 8 groups and the left and right ears of the normal control group to allow it to bind to mast cells. Then, 24 hours after the fourth day of anti-DNP IgE injection, a mixed solution of antigen (DNP-HAS, Sigma) and pigment Evan's Blue (Sigma) (0.25 mL/mouse, i.v.) was injected into the tail vein (the normal control group was injected with the same volume of the mixed solution of antigen and pigment Evan's Blue). The antigen reacted with the antibody attached to the mast cells, causing a local allergic reaction, increased local vascular permeability, and pigment penetration into the tissue. The reaction intensity was determined by measuring the local pigment content 30 minutes later. The dye was extracted from the left and right ears, and the absorbance of Evan's blue was measured at a specific wavelength. […] The efficacy effects of each test substances in the PCA animal model were evaluated.

In experiment [2] the test system is PG-PS-induced arthritis in Lewis rats. In words: PG-PS-induced arthritis model in rats. In kind it is in vivo. From the text: Intraperitoneal injection of PG-PS suspension can effectively induce chronic, erosive, and relapsing symptoms similar to human rheumatoid arthritis in rats, and is often used to evaluate the in vivo effectiveness of medicaments in the early discovery of arthritis medicaments. The specific steps were as follows:
On day 0, Lewis rats were randomly divided into 6 groups, with 5 rats in the first group and 10 rats in each group from the second group to the sixth group. All rats in the second to sixth groups were intraperitoneally injected with PG-PS (Lee Laboratories, PG-PS 10S, 5.1 mg/ml Rhamnose) to establish the model. The PG-PS injection dose v=15 μg/g×bw (rat weight, in g)/5.1 μg/μL.
On day 1, the model rats (the second to sixth groups) were randomly redivided into 5 groups, with 10 rats in each group. The animals in each group were given the corresponding medicament or vehicle by gavage once a day until the 29th day. […] Clinical observations and clinical scoring were performed daily during the administration period. The ankle diameter of each animal after modeling was subtracted from its ankle diameter before modeling to obtain the ankle diameter difference (delta ankle diameter). The area under the curve (AUC) was calculated by analyzing the ankle diameter difference of each animal in each group. The inhibition rate of each administration group relative to the blank vehicle control was calculated by the average AUC between groups.
Pathology: On day 30, the rats were euthanized. The two hind limbs of rats were stained with toluidine blue to evaluate the degree of joint damage in terms of inflammatory cell lesions, pannus formation, cartilage damage, bone resorption, and periosteal new bone formation, and the severity was scored on a scale from 0 to 7.

Experiment [3] relates to IgM-induced calcium signaling in RAMOS cells. Briefly: Antagonism of IgM-induced calcium signaling in RAMOS cells (FLIPR). In kind it is cell-based. The settings on record: Fluo-4D dye. How it is done: The specific test steps were as follows:
A. Ramos cells (ECACC) were seeded in a 384 experimental plate using cell culture medium (RPMI 1640 medium supplemented with 10% fetal bovine serum) at a density of 5×10^6 cells/mL, 20 μL per well.
C. The cell plate and the compound plate were placed into FLIPR. 10 μL was transferred from the compound plate by the FLIPR instrument and added to the cell plate. The cell plate was removed and incubated in a 37° C. incubator for 1 h.
D. One hour later, 40 μL of Fluo-4D dye (Life Technologies, formulated as 0.5× with 40 mL of HBSS and HEPES buffer) was added to the cell plate and incubated at 37° C. for 50 min.
E. 10 μL of IgM at 8×EC80 concentration was added, and the plate was read using FLIPR.
F. The IC50 results of the compounds were analyzed using EXCEL and Prism statistical software.

In experiment [4] the test system is collagen-induced arthritis in DBA/1 mice. Briefly: Collagen-induced arthritis (CIA) model in mice. The experiment is classed as in vivo. How it is done:
Clinical symptoms of arthritis were induced in mice by injecting collagen emulsion into the tail of mice. The specific steps were as follows:
DBA/1 mice were randomly divided into 6 groups, with 10 mice in each group except the blank control group (5 mice). […] The day of the first immunization was recorded as day 0, and the subsequent days were marked in sequence. DBA/1 mice were anesthetized with isoflurane and injected subcutaneously with 50 μl of the prepared collagen emulsion (containing 200 μg of CII) at the tail (2 cm to 3 cm from the base of the tail). On day 21, the same volume of collagen emulsion was injected into the tail in the same way.
On day 28, when the average clinical score reached 1 to 2, the mice were randomly redivided into 4 treatment groups (10 mice per group) and a blank vehicle control group (10 mice per group) according to body weight and score. […] The administration was performed once daily for 14 days by gavage at 10 mL/kg. After the administration, the clinical score curve of each animal in each group was analyzed to calculate the area under the curve (AUC). The inhibition rate of each administration group relative to the blank vehicle control was calculated based on the average AUC between groups.
Clinical observation: From 7 days before immunization to 21 days after immunization, the basic health status and weight changes of DBA/1 mice were observed daily (recorded twice a week). After day 22, the health status, disease incidence, and weight changes of the mice were observed daily (recorded every two days) until the end of the experiment.
When mice began to develop symptoms of arthritis (clinical symptoms of arthritis appeared), they were scored on a scale from 0 to 4 based on the severity of the lesions (redness, swelling, joint deformation), with a maximum score of 4 for each limb and a maximum score of 16 for each animal. The scoring was performed at least three times a week.
Pathology: On day 42, mice were euthanized. The two hind limbs of the mice were taken, soaked in 10% formalin solution, decalcified with formic acid solution, embedded in paraffin, sectioned, stained with hematoxylin-eosin (HE), and observed under a microscope. The degree of joint damage was evaluated from four aspects: inflammatory cell infiltration, pannus formation, cartilage damage, and bone resorption, and scored on a scale from 0 to 4.

With `O=C(O)COCCN1CCN(C(c2ccccc2)c2ccc(Cl)cc2)CC1` (stereo not shown) [Cetirizine, cetirizine, reference compound], in experiment [1] (20 mg/kg QD by gavage), the “Concentration of Evan's Blue, Left ear, Average value” (from here on “Concentration of Evan's Blue”) is 22.70 µg/mL.
Consider `C[C@]12C=CC(=O)C=C1CC[C@@H]1[C@@H]2C(=O)C[C@@]2(C)[C@H]1CC[C@]2(O)C(=O)CO` [Prednisone, prednisone, reference compound], for which the “Concentration of Evan's Blue” value in experiment [1] (10 mg/kg QD by gavage) worked out at 25.36 µg/mL.
Usually IC50 stands for the concentration needed to halve the response being measured. On to `C=CC(=O)Nc1cccc(Nc2nc(Nc3ccc(OCCOC)cc3)ncc2F)c1` [CC-292, reference compound], for which the “inhibition rate (AUC of ankle diameter difference vs blank vehicle control)” value in experiment [2] (3 mg/kg once a day by gavage until the 29th day) is recorded as −0.1%. In addition, the “joint tissue lesions (pathology)” value in experiment [2] (3 mg/kg, day 30) is reported as “more severe”. Further, the concentration for half-maximal inhibition (IC50) in experiment [3] stood at 171 ± 4.03 nM. Also, the “histopathological score compared with the blank vehicle control group” value in experiment [4] (3 mg/kg) is reported as “not significantly different”. Moreover, in experiment [4] (3 mg/kg once daily by gavage for 14 days), the “inflammation inhibition rate (AUC of clinical score vs blank vehicle control)” value is listed as 29.1%. In experiment [4] (3 mg/kg, day 42), the “pathology of foot joint bone tissue” value was “certain inflammation and more bone tissue damage”.
Consider `C=CC(=O)N(C)CCOc1c(N)ncnc1-c1cc(F)cc(NC(=O)c2ccc(C3CC3)cc2F)c1C` [LOU-064, reference compound], for which the “Concentration of Evan's Blue” value was determined as 24.45 µg/mL in experiment [1] (15 mg/kg BID by gavage) and 17.24 µg/mL in experiment [1] (45 mg/kg BID by gavage).
